Reference: PMC9736855, “Discovery of 3-Amino-1H-pyrazole-Based Kinase Inhibitors to Illuminate the Understudied PCTAIRE Family” (International Journal of Molecular Sciences, 2022)

Tests used:
[1] = Microsomal stability assay; format: in vitro ADME, Sprague-Dawley rats; conditions: rat liver microsomes, 10 µM, 37 °C, 60 min
Description: The lead structure 1 was not included in this assay due to its promiscuous behaviour. Since 1 is presumably not suitable as a tool compound to study the effect of selective kinase inhibition in an in vivo application, we focused on the newly synthesized compounds 21i and 43d. The compounds were tested against an activated microsome mix derived from the liver of Sprague-Dawley rats, as previously reported. 21i and 43d were incubated at 37 °C for 60 min and the amount of unmetabolized compound was determined in 15 min steps, using high-performance liquid chromatography (HPLC).
The solubilized test compound (5 μL, final concentration 10 µM) was preincubated at 37 °C in 432 μL of phosphate buffer (0.1 M, pH 7.4) together with 50 μL NADPH regenerating system (30 mM glucose 6 phosphate, 4 U/mL glucose 6 phosphate dehydrogenase, 10 mM NADP, 30 mM MgCl2). After 5 min, the reaction was started by the addition of 13 μL of microsome mix from the liver of Sprague−Dawley rats (Invitrogen; 20 mg protein/mL in 0.1 M phosphate buffer) in a shaking water bath at 37 °C. The reaction was stopped by adding 500 μL of ice cold methanol at 0, 15, 30 and 60 min. […] The amounts of the test compound were quantified by an external calibration curve. Data are expressed as the mean ± SEM remaining compound from three independent experiments.

[2] = target: T1, BRPF1B (Homo sapiens, UniProt P55201); assay: DSF; format: binding
T1 construct: purchased in-house DSF panel (SGC Frankfurt)
T1 sequence (P55201 whole entry): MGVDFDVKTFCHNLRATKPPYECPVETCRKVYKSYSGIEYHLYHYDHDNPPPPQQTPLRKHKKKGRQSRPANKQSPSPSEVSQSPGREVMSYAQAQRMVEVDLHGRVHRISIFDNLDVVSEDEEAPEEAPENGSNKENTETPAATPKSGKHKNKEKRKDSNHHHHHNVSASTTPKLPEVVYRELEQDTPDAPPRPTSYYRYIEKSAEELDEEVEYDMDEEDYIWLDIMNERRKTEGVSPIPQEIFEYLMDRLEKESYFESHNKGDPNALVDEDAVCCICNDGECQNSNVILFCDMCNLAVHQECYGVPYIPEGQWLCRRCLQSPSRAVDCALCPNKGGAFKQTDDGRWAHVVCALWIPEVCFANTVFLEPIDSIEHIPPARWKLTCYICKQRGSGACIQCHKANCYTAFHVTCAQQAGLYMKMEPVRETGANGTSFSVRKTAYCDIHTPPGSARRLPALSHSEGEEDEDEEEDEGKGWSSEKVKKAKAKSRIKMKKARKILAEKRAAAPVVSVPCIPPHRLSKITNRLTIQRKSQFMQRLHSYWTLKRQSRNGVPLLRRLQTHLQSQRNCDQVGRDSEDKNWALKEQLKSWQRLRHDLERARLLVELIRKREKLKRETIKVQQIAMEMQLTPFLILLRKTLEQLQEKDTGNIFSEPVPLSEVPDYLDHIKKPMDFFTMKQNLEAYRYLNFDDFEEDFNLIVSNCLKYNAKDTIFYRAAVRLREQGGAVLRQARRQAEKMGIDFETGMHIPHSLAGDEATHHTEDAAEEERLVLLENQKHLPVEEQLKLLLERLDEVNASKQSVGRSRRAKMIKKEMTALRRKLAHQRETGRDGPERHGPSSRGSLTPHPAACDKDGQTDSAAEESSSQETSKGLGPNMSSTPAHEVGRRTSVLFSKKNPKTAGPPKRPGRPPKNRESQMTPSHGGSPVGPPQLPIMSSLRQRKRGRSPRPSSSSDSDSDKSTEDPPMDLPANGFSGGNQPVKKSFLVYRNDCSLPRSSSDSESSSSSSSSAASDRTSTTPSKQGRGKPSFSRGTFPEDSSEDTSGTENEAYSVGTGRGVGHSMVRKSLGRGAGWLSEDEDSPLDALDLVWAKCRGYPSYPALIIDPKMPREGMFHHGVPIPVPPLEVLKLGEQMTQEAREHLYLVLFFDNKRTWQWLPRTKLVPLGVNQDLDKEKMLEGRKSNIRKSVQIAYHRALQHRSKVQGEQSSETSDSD

[3] = target: T2, MAPKAPK2 (Homo sapiens, UniProt P49137); assay: DSF; format: binding
T2 construct: purchased in-house DSF panel (SGC Frankfurt)
T2 sequence (P49137 64-325): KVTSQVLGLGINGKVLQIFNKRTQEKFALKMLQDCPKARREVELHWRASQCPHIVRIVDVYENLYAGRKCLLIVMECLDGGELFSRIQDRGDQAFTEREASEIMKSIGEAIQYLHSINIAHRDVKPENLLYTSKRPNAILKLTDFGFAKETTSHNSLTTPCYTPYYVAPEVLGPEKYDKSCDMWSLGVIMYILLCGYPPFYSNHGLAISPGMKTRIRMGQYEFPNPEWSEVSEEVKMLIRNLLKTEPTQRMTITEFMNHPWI
Description: Recombinant protein kinase domains with a concentration of 2 μM were mixed with a 10 μM compound solution in DMSO, 20 mM HEPES, pH 7.5, and 500 mM NaCl. SYPRO Orange (5000×, Invitrogen) was added as a fluorescence probe (1 µl per mL). Subsequently, temperature-dependent protein unfolding profiles were measured, using the QuantStudio™ 5 realtime PCR machine (Thermo Fisher, Waltham, MA, USA). […] The temperature was raised with a step rate of 3 °C per minute. Data points were analyzed with the internal software (Thermal Shift SoftwareTM Version 1.4, Thermo Fisher) using the Boltzmann equation to determine the inflection point of the transition curve. Differences in melting temperature are given as ΔTm values in °C. Measurements were performed in duplicates.

[4] = target: T3, MAP3K5 (Homo sapiens, UniProt Q99683); assay: DSF; format: binding
T3 construct: purchased in-house DSF panel (SGC Frankfurt)
T3 sequence (Q99683 659-951): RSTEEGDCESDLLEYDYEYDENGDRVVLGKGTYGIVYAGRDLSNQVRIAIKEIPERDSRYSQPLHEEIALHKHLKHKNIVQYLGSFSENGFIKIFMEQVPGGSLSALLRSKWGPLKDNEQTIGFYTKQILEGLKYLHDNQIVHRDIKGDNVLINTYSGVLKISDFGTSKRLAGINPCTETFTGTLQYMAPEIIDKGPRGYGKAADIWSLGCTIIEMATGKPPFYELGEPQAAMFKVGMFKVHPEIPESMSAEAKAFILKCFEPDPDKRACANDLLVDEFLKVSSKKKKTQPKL
Description: (§1) Recombinant protein kinase domains with a concentration of 2 μM were mixed with a 10 μM compound solution in DMSO, 20 mM HEPES, pH 7.5, and 500 mM NaCl. SYPRO Orange (5000×, Invitrogen) was added as a fluorescence probe (1 µl per mL). Subsequently, temperature-dependent protein unfolding profiles were measured, using the QuantStudio™ 5 realtime PCR machine (Thermo Fisher, Waltham, MA, USA). […] The temperature was raised with a step rate of 3 °C per minute. Data points were analyzed with the internal software (Thermal Shift SoftwareTM Version 1.4, Thermo Fisher) using the Boltzmann equation to determine the inflection point of the transition curve [56]. Differences in melting temperature are given as ΔTm values in °C. Measurements were performed in duplicates.

[5] = target: T4, MAPK8 (Homo sapiens, UniProt P45983); assay: DSF; format: binding
T4 construct: purchased in-house DSF panel (SGC Frankfurt)
T4 sequence (P45983 1-364): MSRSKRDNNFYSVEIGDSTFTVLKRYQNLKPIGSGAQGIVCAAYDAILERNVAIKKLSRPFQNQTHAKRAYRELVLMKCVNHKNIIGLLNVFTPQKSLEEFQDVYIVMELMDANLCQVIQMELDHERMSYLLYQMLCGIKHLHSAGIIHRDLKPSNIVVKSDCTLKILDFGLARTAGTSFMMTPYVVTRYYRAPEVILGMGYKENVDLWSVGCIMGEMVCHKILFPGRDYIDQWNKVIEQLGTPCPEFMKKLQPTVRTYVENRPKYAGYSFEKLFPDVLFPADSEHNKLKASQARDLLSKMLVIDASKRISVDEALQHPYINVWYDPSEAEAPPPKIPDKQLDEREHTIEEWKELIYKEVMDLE
Description: as §1

[6] = tested on: RPS6KA5; assay: DSF; format: binding
Description: as §1

[7] = target: T5, SPRK1 (Homo sapiens, UniProt Q96SB4); assay: DSF; format: binding
T5 construct: purchased in-house DSF panel (SGC Frankfurt)
T5 sequence (Q96SB4 whole entry): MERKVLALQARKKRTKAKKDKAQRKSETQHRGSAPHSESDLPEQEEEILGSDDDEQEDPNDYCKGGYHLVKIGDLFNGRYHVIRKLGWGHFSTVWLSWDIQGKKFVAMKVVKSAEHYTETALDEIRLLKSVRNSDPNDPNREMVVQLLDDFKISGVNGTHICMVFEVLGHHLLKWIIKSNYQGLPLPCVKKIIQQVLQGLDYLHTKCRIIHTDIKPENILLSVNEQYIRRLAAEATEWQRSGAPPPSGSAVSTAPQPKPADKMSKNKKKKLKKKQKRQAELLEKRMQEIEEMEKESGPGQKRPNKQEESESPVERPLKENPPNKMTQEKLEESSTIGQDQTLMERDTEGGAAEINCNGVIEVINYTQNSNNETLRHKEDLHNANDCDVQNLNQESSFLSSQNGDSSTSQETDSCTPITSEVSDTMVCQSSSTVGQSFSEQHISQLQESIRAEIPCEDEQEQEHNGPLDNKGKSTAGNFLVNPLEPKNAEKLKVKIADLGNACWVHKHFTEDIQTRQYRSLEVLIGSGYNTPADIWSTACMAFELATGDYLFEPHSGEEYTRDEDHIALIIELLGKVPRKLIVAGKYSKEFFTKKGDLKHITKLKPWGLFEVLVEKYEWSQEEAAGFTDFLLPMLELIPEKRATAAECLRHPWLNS
Description: as §1

[8] = target: T6, TLK1 (Homo sapiens, UniProt Q9UKI8); assay: DSF; format: binding
T6 construct: purchased in-house DSF panel (SGC Frankfurt)
T6 sequence (Q9UKI8 456-734): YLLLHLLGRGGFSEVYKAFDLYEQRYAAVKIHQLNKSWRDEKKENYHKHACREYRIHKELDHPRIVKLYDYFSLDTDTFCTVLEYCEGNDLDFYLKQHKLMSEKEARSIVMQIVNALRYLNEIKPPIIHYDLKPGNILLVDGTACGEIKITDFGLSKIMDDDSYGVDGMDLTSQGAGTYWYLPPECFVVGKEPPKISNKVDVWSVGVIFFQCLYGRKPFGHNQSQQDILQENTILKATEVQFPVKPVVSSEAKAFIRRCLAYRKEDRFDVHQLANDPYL
Description: as §1

[9] = tested on: PCTAIRE family; assay: NanoBRET; format: cell-based; conditions: read-out: cellular potency, other members of the PCTAIRE family
Outline: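 Full-length kinases fused to NanoLuc were expressed in HEK293T cells for 20 h, then cells were equilibrated with serially diluted inhibitor and tracer at its KD,app for 2 h at 37 °C/5% CO2. BRET (450/610 nm) was read after substrate plus extracellular NanoLuc inhibitor; EC50 from normalized 3-parameter fit.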

[10] = target: GSK3B (Homo sapiens, UniProt P49841); assay: NanoBRET; format: cell-based; parameters: Full-length kinases were obtained as plasmids cloned in frame with a terminal NanoLuc-fusion; host or cells: HEK293T
Sequence of GSK3B (P49841 whole entry, the tested form may be a part): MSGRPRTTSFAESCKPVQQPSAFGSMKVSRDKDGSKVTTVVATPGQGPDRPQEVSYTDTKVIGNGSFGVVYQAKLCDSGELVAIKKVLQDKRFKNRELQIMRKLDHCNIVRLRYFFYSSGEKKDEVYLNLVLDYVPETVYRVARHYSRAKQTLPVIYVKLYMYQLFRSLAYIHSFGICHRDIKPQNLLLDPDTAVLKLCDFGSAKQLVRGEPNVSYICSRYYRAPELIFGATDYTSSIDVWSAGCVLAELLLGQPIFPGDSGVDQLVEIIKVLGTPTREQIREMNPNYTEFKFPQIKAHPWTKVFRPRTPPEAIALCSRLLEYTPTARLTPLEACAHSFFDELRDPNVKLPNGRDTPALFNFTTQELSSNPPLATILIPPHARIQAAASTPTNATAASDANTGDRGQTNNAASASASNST
Description: The assay was performed as described previously. In brief: Full-length kinases were obtained as plasmids cloned in frame with a terminal NanoLuc-fusion (Promega, Madison, WI, USA), as specified in table (Table S6). Plasmids were transfected into HEK293T cells using FuGENE HD (Promega, E2312) and proteins were allowed to express for 20h. Serially diluted inhibitor and NanoBRET Kinase Tracer (Promega) at a concentration determined previously as the KD,app (Table S5) were pipetted into white 384-well plates (Greiner 781207) using an Echo acoustic dispenser (Labcyte, San Jose, CA, USA). The corresponding protein-transfected cells were added and reseeded at a density of 2.5 × 10^5 cells/mL after trypsinization and resuspending in Opti-MEM without phenol red (Life Technologies, Carlsbad, CA, USA). The system was allowed to equilibrate for 2 h at 37 °C/5% CO2 prior to BRET measurements. To measure BRET, NanoBRET NanoGlo Substrate + Extracellular NanoLuc Inhibitor (Promega, N2540) was added as per the manufacturer’s protocol, and filtered luminescence was measured on a PHERAstar plate reader (BMG Labtech, Ortenberg, Germany) equipped with a luminescence filter pair (450 nm BP filter (donor) and 610 nm LP filter (acceptor)). […]

[11] = tested on: 359 wild-type kinases; parameters: method as in PMID 19053485; conditions: kinome-wide screen; cited from earlier work
[12] = target: T7, CDK2 (Homo sapiens, UniProt P24941); conditions: cited from earlier work
T7 construct: purchased in-house DSF panel (SGC Frankfurt)

[13] = target: CDK5; conditions: cited from earlier work
[14] = target: T8, JNK3 (Homo sapiens, UniProt P53779); parameters: method as in PMID 19053485; conditions: cited from earlier work
T8 construct: Recombinant protein kinase domains with a concentration of 2 μM were mixed; made in house
T8 sequence (P53779 64-359 limits assumed): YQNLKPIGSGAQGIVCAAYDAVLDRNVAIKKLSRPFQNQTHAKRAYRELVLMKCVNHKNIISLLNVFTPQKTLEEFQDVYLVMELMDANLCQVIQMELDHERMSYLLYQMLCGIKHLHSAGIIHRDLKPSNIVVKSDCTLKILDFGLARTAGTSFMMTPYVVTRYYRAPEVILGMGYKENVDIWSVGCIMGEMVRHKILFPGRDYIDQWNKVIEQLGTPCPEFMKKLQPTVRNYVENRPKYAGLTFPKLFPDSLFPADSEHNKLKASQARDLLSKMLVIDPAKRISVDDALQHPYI

SMILES | unmetabolized compound detected [1] [%] | ΔTm BRPF1B [2] [°C] | ΔTm MAPKAPK2 [3] [°C] | ΔTm MAP3K5 [4] [°C] | ΔTm MAPK8 [5] [°C] | ΔTm RPS6KA5 [6] [°C] | ΔTm SPRK1 [7] [°C] | ΔTm TLK1 [8] [°C] | EC50 [9] [nM] | NanoBRET EC50 GSK3B [10] | number of kinases targeted of 359 wild-type kinases [11] | Kd [12] [nM] | Kd [13] [nM] | Kd [14] [nM]
COC(=O)c1cc(Nc2ccnc(NCc3ccc(NC(=O)OC(C)(C)C)cc3)n2)[nH]n1 [21i, methyl 5-((2-((4-((tert-butoxycarbonyl)amino)benzyl)amino)pyrimidin-4-yl)amino)-1H-pyrazole-3-carboxylate] | 16 | – | – | – | – | – | – | – | – | – | – | – | – | –
CC(C)(C)OC(=O)Nc1ccc(CNc2nccc(Nc3cc(C(=O)OC(C)(C)C)[nH]n3)n2)cc1 [43d, tert-butyl 3-((2-((4-((tert-butoxycarbonyl)amino)benzyl)amino)pyrimidin-4-yl)amino)-1H-pyrazole-5-carboxylate] | 79 | -0.9 | 0.2 | 0.1 | -0.1 | 1.7 | 0.4 | -1.4 | 20 to 120 | negligible | – | – | – | –
CC(C)OC(=O)c1cc(Nc2ccnc(NCc3ccc(NC(=O)OC(C)(C)C)cc3)n2)n[nH]1 [42d, isopropyl 3-((2-((4-((tert-butoxycarbonyl)amino)benzyl)amino)pyrimidin-4-yl)amino)-1H-pyrazole-5-carboxylate] | – | -1.4 | -0.3 | 0.1 | -0.8 | 0.8 | -0.2 | -1.2 | – | – | – | – | – | –
N#CCc1ccc(Nc2nccc(Nc3cc(C4CC4)[nH]n3)n2)cc1 [compound 1, reference compound] | – | – | – | – | – | – | – | – | – | – | 337 | 4.6 | 27.6 | 26.1
